# Measurements as given in patent US8034790B2, “Use of MDA-7 to inhibit pathogenic infectious organisms” (priority 2003, dated 2011).
# Key:
# MDA-7 protein = MDA-7 protein expression and secretion by western blot (cell lysates and supernatants); type: cell-based, human; settings: Ad-mda7 treated H1299 cells
# Description: Cell lysates ([…]) were suspended in 500 μl of Laemmli buffer with 5% 2-mercapto-ethanol (2ME) or supernatants (1:1 mixing with Laemmli buffer+2ME), were analyzed by SDS gel electrophoresis and western blot analysis. Expression of various proteins was determined by using the following primary antibodies: rabbit or mouse anti-human MDA-7 (Introgen Therapeutics, Inc), goat anti-human BiP/GRP-78, rabbit anti-human GADD34, goat anti-human PP2A, goat anti-human PERK, rabbit anti-human XBP-1 (Santa Cruz Biotechnologies, Santa Cruz, Calif.), rabbit anti-human caspase 7 and caspase-9 (Cell Signaling Technology, Beverly, Mass.). Antibodies against beta-actin, and alpha-tubulin were purchased from Sigma. Following incubation with horseradish peroxidase-labeled secondary antibody (Amersham Biosciences, Piscataway, N.J.) the proteins were visualized on enhanced chemiluminescence film (Hyperfilm, Amersham Biosciences, Piscataway, N.J.) by application of Amersham's enhanced chemiluminescence western blotting detection system. All westerns were performed 2-4 times.
# H1299 cells were treated with 1000 vp/cell Ad-mda7 and the indicated concentrations of tunicamycin. Cells were harvested 24 hr later and analyzed for intracellular and secreted MDA-7 protein by western blot and apoptosis via Annexin V assay. Control cultures of cells treated with only tunicamycin were also assessed for apoptosis (Tun. Toxicity).
# endostatin = experiment: Endostatin secretion from Ad-endostatin treated H1299 cells; type: cell-based, human; settings: H1299 cells treated with Ad-endostatin
# Description: To address whether apoptosis induction is due to intracellular MDA-7 or is simply a non-specific effect due to protein accumulation in the ER, we performed similar experiments using an adenoviral vector encoding endostatin as a control glycosylated secreted protein.
# H1299 cells = experiment: Cell viability / cell killing (trypan blue exclusion) in H1299 cells; type: cell-based, human; settings: for effect on cell killing by Ad-mda7 / cytotoxicity of secretion inhibitor alone / effect on cell killing due to Ad-luc or Ad-endostatin / cell killing by MDA-7 protein applied to cells: H1299 cells; for effect on cell killing by Ad-mda7: combination of Ad-mda7 and secretion inhibitor; for cytotoxicity of secretion inhibitor alone: dose that blocks MDA-7 secretion; for effect on cell killing due to Ad-luc or Ad-endostatin: p>0.05; for cell killing by MDA-7 protein applied to cells: viability after 3 days, EM 20-100 ng/ml, BacM 100 ng/ml, supernatant 10 and 100 ng/ml
# Description: Construction and purification of replication-deficient human type 5 Adenovirus (Ad5) carrying the mda-7 gene was described previously (Mhashilkar et al., 2001). Cell lines were infected with Ad-mda7 or Ad-luc with indicated MOIs. Cells were plated at 10^5-10^6 cells/well in a 6-well plate format for protein expression, trypan-blue exclusion assay or apoptosis assays. For transfection with pShooter vectors, 1 μg of plasmid DNA was used to transfect cells using lipofectamine protocol as described (Mhashilkar et al., 2003).
# Cell viability was determined by trypan blue exclusion assay or Live/Dead assay. Cells were trypsinized and a small aliquot was suspended 1:1 volume with 0.1% trypan blue. Total cell numbers and cell viability counts were assessed using a hemocytometer under light microscopy. For Live/Dead assay (Molecular Probes, Eugene Oreg.) cells were plated in chamber slides (Nunc) and then treated with pShooter-plasmid vectors or with Ad− vectors. Two-four days later the cells were treated with the probes, Calcein AM and Ethidium homodimer (both at 5 uM final conc. in PBS), for 30 minutes and then live (green) and dead (red) cells were counted via fluorescence microscopy. All assays were performed at least three times.
Molecule,effect on endostatin secretion (endostatin),effect on cell killing by Ad-mda7 (H1299 cells),cytotoxicity of secretion inhibitor alone (H1299 cells),effect on cell killing due to Ad-luc or Ad-endostatin (H1299 cells),cell killing by MDA-7 protein applied to cells (H1299 cells),also measured
"C[C@H]1CCC/C=C/[C@@H]2C[C@H](O)C[C@H]2[C@H](O)/C=C/C(=O)O1 [BFA, Brefeldin A]",potently blocked endostatin secretion,slightly enhanced cell killing,not cytotoxic,Neither BFA nor tunicamycin significantly modulated cell killing,–,inhibition of MDA-7 secretion (MDA-7 protein; 1 μg/ml BFA): completely block MDA-7 secretion; concentration required to completely block secretion of MDA-7 protein (MDA-7 protein): less than 1 μg/ml
Tunicamycin,potently blocked endostatin secretion,slightly enhanced cell killing,not cytotoxic,Neither BFA nor tunicamycin significantly modulated cell killing,–,reduction of secreted MDA-7 (MDA-7 protein; 1 μg/ml tunicamycin): > 60%; inhibition of MDA-7 secretion (MDA-7 protein; 2 μg/ml tunicamycin): completely blocked secretion
"MDA-7 containing supernatant: MDA-7 containing supernatant from stably expressing 293-mda7 cells (protein, UniProt Q13007 52-206, looked up, cell culture supernatant, MDA-7 containing supernatant from stably expressing 293-mda7 cells) Interleukin-24: QEFHFGPCQVKGVVPQKLWEAFWAVKDTMQAQDNITSARLLQQEVLQNVSDAESCYLVHTLLEFYLKTVFKNYHNRTVEVRTLKSFSTLANNFVLIVSQLQPSQENEMFSIRDSAHRRFLLFRRAFKQLDVEAALTKALGEVDILLTWMQKFYKL",–,–,–,–,did not induce cell death,"cell death above background levels (H1299 cells; supernatant from stably expressing 293-mda7 cells applied to H1299 cells, 10 and 100 ng/ml, 3 days): < 10%"
"BacM: MDA-7 protein made in insect cells using baculovirus vectors (protein, UniProt Q13007 52-206, looked up, insect cell expressed, MDA-7 protein made in insect cells using baculovirus vectors) Interleukin-24: QEFHFGPCQVKGVVPQKLWEAFWAVKDTMQAQDNITSARLLQQEVLQNVSDAESCYLVHTLLEFYLKTVFKNYHNRTVEVRTLKSFSTLANNFVLIVSQLQPSQENEMFSIRDSAHRRFLLFRRAFKQLDVEAALTKALGEVDILLTWMQKFYKL",–,–,–,–,failed to induce significant killing,–
"MDA-7: protein of 206 amino acids (SEQ ID NO: 2) encoded by mda-7 cDNA (protein, listed as Homo sapiens) MNFQQRLQSLWTLARPFCPPLLATASQMQMVVLPCLGFTLLLWSQVSGAQGQEFHFGPCQVKGVVPQKLWEAFWAVKDTMQAQDNITSARLLQQEVLQNVSDAESCYLVHTLLEFYLKTVFKNYHNRTVEVRTLKSFSTLANNFVLIVSQLQPSQENEMFSIRDSAHRRFLLFRRAFKQLDVEAALTKALGEVDILLTWMQKFYKL",–,–,–,–,–,"anti-angiogenic activity, potency relative to endostatin (Anti-angiogenic activity): 50 fold; cell killing (H1299 cells; H1299 cells treated with MDA-7 protein and then transduced with Ad-luc): Only background killing was observed"
